Test results taken from US10479814B2, “Adenosine receptor activation reagent and the uses of thereof” (Zhejiang Subtropical Crops Research Institute, priority 2014, dated 2019).
Entries after “also recorded” stand apart in the source; their conditions may differ.

Assays:
Type in all cases: in vivo
[1] = test system: rat middle cerebral artery distal obstruction cerebral ischemia model; test: dMCAO cerebral ischemia: TUNEL detection of brain cortex apoptosis
Description: Using rat middle cerebral artery distal obstruction cerebral ischemia model. (1) according to rat weight, 10% chloral hydrate (3 ml/kg) was peritoneally injected to anaesthetize. (2) the rat lie on right side and fixed, 1 cm skin incision was cut at connection of inner canthus with external canal, fascia was isolated, muscle tissue, the skull was exposed; (3) a small amount of normal saline was sucked with cotton ball to wipe the skull to ac clear view; (4) fascia was isolated under operating microscope, and the skull was exposed, a hole with diameter of 2 mm circular was drilled at a sute 1/3 of spine; (5) the excess bone debris was washed by a small amount of normal saline, the meninge was push aside, and the middle cerebral artery MCA was exposed; (6) the rat lie in supine position and fixed, an incision was made along middle of throat, and arteria carotis communis CCA on both sides were isolate, pass through with a surgical suture, not ligated temporarily; (7) the MCA was found under operating microscope, burned by a monopolar coagulator, then wash and colled with normal saline; (8) immediately after coagulation, the arteria carotis communis on both sides was ligated, and blocked for 60 min; (9) the wound on head was stitched, after 1 hour the arteria carotis communis on both sides was […], and the skin was stitched, thus the modeling was complete. […]

[2] = test system: mouse spontaneous activity; test: mouse spontaneous activity (sedation)
Description: Male ICR mice were randomly divided into four groups, and adenosine A1R antagonist DPCPX was selected. The mice were divided into solvent group, HEA (15 mg/kg) group, DPCPX (4 mg/kg) and DPCPX+HEA (4 mg/kg+15 mg/kg) group; wherein in DPCPX+HEA group, the mice was peritonealelly injected with the antagonist, after 10 min the HEA was peritoneally injected. After 15 min of drug administration, the mice were put into a single opaque square spontaneous activity box (50 cm×50 cm×40 cm), and foot grating number within 5 min was recorded by video camera. Calculating on the basis of four limbs of the mouse entering the same lattice, as the activity index of the animal.

[3] = test system: ICAM-1 mRNA in mouse renal cortex; test: kidney ischemia reperfusion: real time quantitative PCR of ICAM-1; conditions: vs IR group; HEA 5, 7.5, 10 mg/kg; DPCPX 1 mg/kg; DPCPX 1 mg/kg+HEA
Description: (§1) Male C57BL/6 mice 20-25 g, after one week of adaptive feeding to the animals, were randomly divided into eight groups: sham-operation group, IR group, HEA 5 mg/kg group, HEA 7 mg/kg group, HEA 10 mg/kg group, DPCPX (1 mg/kg) group, DPCPX (1 mg/kg)+HEA (5 mg/kg) group and DPCPX (1 mg/kg)+HEA (7.5 mg/kg) group. […]
(§2) The MPO analysis was conducted according to the specification in the kit. 9.2.6 Real time quantitative PCR analysis of gene expression of ICAM-1, TNF-α and IL-1β; the sequence of primer used in RT-PCR reaction system is as follow:
(§3) PCR amplification reaction system: IQ SYBR Green Super mix 12.5 μL, Forward primer (10 μmo/L) 1 μL, Reverse primer (10 μmol/L) 1 μL, cDNA (water was added to dilute to same level) 10.5 μL. […] The statistics and calculation of experiment results was automatically conducted fluorescence quantitative PCR analyzing software BIO-RAD CFX Manager. Target gene mRNA expression level was calculated by 2-ΔΔCt method, and standardized using the GAPDH mRNA in corresponding specimen a standard.

[4] = test system: TNF-α mRNA in mouse renal cortex; test: kidney ischemia reperfusion: real time quantitative PCR of TNF-α; conditions: vs IR group; HEA 5, 7.5, 10 mg/kg; DPCPX 1 mg/kg; DPCPX 1 mg/kg+HEA
Description: as §1, §2, §3

Row | Structure (SMILES) | effect of DPCPX on brain protective effect of HEA (TUNEL) ([1]; DPCPX 1 mg/kg ip + HEA 7.5 mg/kg ip) | effect of DPCPX on sedation of the HEA ([2]; DPCPX 4 mg/kg ip 10 min before HEA 15 mg/kg) | ICAM-1 mRNA expression in renal cortex [3] | TNF-α mRNA expression in renal cortex [4] | apoptosis rate of cerebral cortex infarction ischemic penumbra (TUNEL) ([1]; dMCAO rat, HEA 7.5 mg/kg ip, vs model group) | spontaneous activity number within 5 min ([2]; normal mouse, HEA 15 mg/kg ip, 15 min after administration, vs solvent group)
1 | CCCn1c(=O)c2[nH]c(C3CCCC3)nc2n(CCC)c1=O [DPCPX, reference compound] | blocking brain protective effect of the HAE | sedation of the HEA is significantly antagonized | not statistically significant | significantly increase | – | –
2 | OCCNc1ncnc2c1ncn2[C@@H]1O[C@H](CO)[C@@H](O)[C@H]1O [HEA, N(6)-(2-hydroxyethyl)-adenosine] | – | – | significantly reduce the high expression | significantly reduce the high expression | significantly reduced; also recorded: significantly reduce the apoptosis rate of rat cerebral cortex infarction ischemic penumbra | significant; also recorded: significantly reduce spontaneous activity number of normal mouse within 5 min
